From PubChem BioAssay (NCI)
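Each compound was tested at five concentrations against cells in 96-well plates for 48 hours. TGI: concentration producing complete growth inhibition.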

Test system: MDA-N
Experiment: growth of human tumour cells (NCI), 48 h

Row | SMILES | TGI
1 | CC(C)(C)[Si](C)(C)O[C@@H](C(=O)OC1C=CCCC1)[C@@H](NC(=O)c1ccccc1)c1ccccc1 (some centres not stated) | > 100 µM
2 | O=C(Nc1cccc2ccccc12)Nn1cnnc1 | > 100 µM
3 | Cc1oc2c(c1C)S(=O)(=O)C(C#N)=C(c1ccccc1)N2 | > 100 µM
4 | CCOC(=O)C1=CN/C(=C(/C)C(=O)OC)SC1C(=O)OCC (configuration not stated) | > 100 µM
5 | Cc1ccc2c(c1)C(=O)/C(=N/Nc1ccc(Cl)cc1)CCO2 | > 100 µM
6 | COc1cc(C2SCC(=O)N2c2ccccc2Cl)cc(OC)c1OC (configuration not stated) | 44.8 µM
7 | C=C1C(=O)OC2/C=C(\CO)C3OC3C3OC3(C)CC(OC(=O)/C(=C/C)CO)C12 (configuration not stated) | > 100 µM
8 | COc1ccc2cc(CNCCCCCCCCCCCCNCc3ccc4cc(OC)ccc4c3)ccc2c1 | > 54.4 µM
9 | COc1cc(S(=O)(=O)Nc2nc(-c3ccc(N4C(=O)CSC4c4cccs4)cc3)cs2)ccc1Cl (configuration not stated) | > 100 µM
10 | COc1cc(S(=O)(=O)Nc2nc(-c3ccc(N4C(=O)C(CC(=O)O)SC4c4ccccc4O)cc3)cs2)ccc1Cl (configuration not stated) | > 100 µM
11 | N#C/C(=C\c1cn(Cc2ccccc2)c2ccccc12)c1nn(-c2ccccc2)c(N)c1C#N | 88.1 µM
12 | COCC(N=CN1CCCc2ccccc2[C@@H]1CCCCl)C(C)(C)C (some centres not stated) | 68.2 µM
13 | CNc1c2cccc(C)c2nc2c(C(=O)NCCN(C)C)cccc12 | 0.328 µM
14 | O=C1CC(NC(=O)C(F)(F)F)c2c1csc2Br (configuration not stated) | > 100 µM
15 | C[C@]12C[C@H](c3ccccc3)Nc3ccccc3N1C(c1ccccc1)=NO2 | > 100 µM
16 | CC[C@](O)(CC(=O)O[C@H]1C(=O)O[C@@H]2C[C@H]3C(C)=CC(=O)[C@@H](O)[C@]3(C)[C@H]3[C@@]4(O)OC[C@]32[C@@H]1[C@@H](C)[C@H]4O)C(C)C | < 0.01 µM
17 | O=C1CC(=O)NC(=NN2C(=O)/C(=C/C(=O)c3ccco3)N=C2c2ccccc2)N1 | > 100 µM

Test system: SR leukemia
Experiment: growth of human tumour cells (NCI), 48 h

Row | SMILES | TGI
18 | COc1ccc2cc(Oc3ccc(Cl)cc3)c(=O)oc2c1 | > 100 µM
19 | CCN(CC)c1cc2c3c(c1)CCCN3CCC2 | > 10 µM
20 | CC(=O)O[C@H]1CC[C@H]2[C@@H]3CCC4C(C)=NNC(=O)C4[C@H]3CC[C@]12C (some centres not stated) | > 100 µM
21 | O=c1[nH]c(C23CC4CC(CC(C4)C2)C3)cc2c1c(=O)oc1ccccc12 | 9.31 µM
22 | CC1=NN(C(=O)CC(=O)Nc2ccc(C)cc2)C(=O)C1N=Nc1ccc(C(=O)O)cc1 (configuration not stated) | > 100 µM
23 | O=C1C(=O)c2c(oc(=O)c3ccccc23)-c2ccccc21 | > 25 µM
24 | CCOC(=O)C(C(=O)OCC)=C1NC2(c3ccccc3Nc3ccc(C)cc32)C(C#N)S1 (configuration not stated) | 4.99 µM
25 | CN1CCC2(CC1)SC[C@H]1C(=O)N(c3ccc(Cl)cc3)C(=O)N12 | > 100 µM
26 | CC(C)=CCC[C@@H](C)C1=C(O)C(O)C(C)=C2N=C(c3ccccc3)C(=O)OC21 (some centres not stated) | > 20.5 µM
27 | CC(C)(C)[Si](C)(C)O[C@@H](C(=O)OC1C=CCCC1)[C@@H](NC(=O)c1ccccc1)c1ccccc1 (some centres not stated) | 37.9 µM
28 | O=C(Nc1cccc2ccccc12)Nn1cnnc1 | > 100 µM
29 | Cc1oc2c(c1C)S(=O)(=O)C(C#N)=C(c1ccccc1)N2 | > 100 µM
30 | CCOC(=O)C1=CN/C(=C(/C)C(=O)OC)SC1C(=O)OCC (configuration not stated) | > 100 µM
31 | Cc1ccc2c(c1)C(=O)/C(=N/Nc1ccc(Cl)cc1)CCO2 | > 100 µM
32 | COc1cc(C2SCC(=O)N2c2ccccc2Cl)cc(OC)c1OC (configuration not stated) | > 100 µM
33 | C=C1C(=O)OC2/C=C(\CO)C3OC3C3OC3(C)CC(OC(=O)/C(=C/C)CO)C12 (configuration not stated) | 89 µM
34 | COc1ccc2cc(CNCCCCCCCCCCCCNCc3ccc4cc(OC)ccc4c3)ccc2c1 | > 21.5 µM
35 | COc1cc(S(=O)(=O)Nc2nc(-c3ccc(N4C(=O)CSC4c4cccs4)cc3)cs2)ccc1Cl (configuration not stated) | 96.8 µM
36 | COc1cc(S(=O)(=O)Nc2nc(-c3ccc(N4C(=O)C(CC(=O)O)SC4c4ccccc4O)cc3)cs2)ccc1Cl (configuration not stated) | > 100 µM
37 | N#C/C(=C\c1cn(Cc2ccccc2)c2ccccc12)c1nn(-c2ccccc2)c(N)c1C#N | > 100 µM
38 | COCC(N=CN1CCCc2ccccc2[C@@H]1CCCCl)C(C)(C)C (some centres not stated) | 12.2 µM
39 | CNc1c2cccc(C)c2nc2c(C(=O)NCCN(C)C)cccc12 | 0.469 µM
40 | O=C1CC(NC(=O)C(F)(F)F)c2c1csc2Br (configuration not stated) | > 100 µM
41 | C[C@]12C[C@H](c3ccccc3)Nc3ccccc3N1C(c1ccccc1)=NO2 | 26.6 µM
42 | CC[C@](O)(CC(=O)O[C@H]1C(=O)O[C@@H]2C[C@H]3C(C)=CC(=O)[C@@H](O)[C@]3(C)[C@H]3[C@@]4(O)OC[C@]32[C@@H]1[C@@H](C)[C@H]4O)C(C)C | < 0.01 µM
43 | O=C1CC(=O)NC(=NN2C(=O)/C(=C/C(=O)c3ccco3)N=C2c2ccccc2)N1 | 41.3 µM

Test system: HOP-92 NSCLC
Experiment: growth of human tumour cells (NCI), 48 h

Row | SMILES | TGI
44 | COc1ccc2cc(Oc3ccc(Cl)cc3)c(=O)oc2c1 | > 100 µM
45 | CCN(CC)c1cc2c3c(c1)CCCN3CCC2 | > 10 µM
46 | CC(=O)O[C@H]1CC[C@H]2[C@@H]3CCC4C(C)=NNC(=O)C4[C@H]3CC[C@]12C (some centres not stated) | > 100 µM
47 | O=c1[nH]c(C23CC4CC(CC(C4)C2)C3)cc2c1c(=O)oc1ccccc12 | 6.48 µM
48 | CC1=NN(C(=O)CC(=O)Nc2ccc(C)cc2)C(=O)C1N=Nc1ccc(C(=O)O)cc1 (configuration not stated) | > 100 µM
49 | O=C1C(=O)c2c(oc(=O)c3ccccc23)-c2ccccc21 | > 25 µM
50 | CCOC(=O)C(C(=O)OCC)=C1NC2(c3ccccc3Nc3ccc(C)cc32)C(C#N)S1 (configuration not stated) | 14.2 µM
51 | CN1CCC2(CC1)SC[C@H]1C(=O)N(c3ccc(Cl)cc3)C(=O)N12 | > 100 µM
52 | CC(C)=CCC[C@@H](C)C1=C(O)C(O)C(C)=C2N=C(c3ccccc3)C(=O)OC21 (some centres not stated) | > 7.8 µM
53 | CC(C)(C)[Si](C)(C)O[C@@H](C(=O)OC1C=CCCC1)[C@@H](NC(=O)c1ccccc1)c1ccccc1 (some centres not stated) | 99.5 µM
54 | O=C(Nc1cccc2ccccc12)Nn1cnnc1 | > 100 µM
55 | Cc1oc2c(c1C)S(=O)(=O)C(C#N)=C(c1ccccc1)N2 | > 100 µM
56 | CCOC(=O)C1=CN/C(=C(/C)C(=O)OC)SC1C(=O)OCC (configuration not stated) | > 100 µM
57 | Cc1ccc2c(c1)C(=O)/C(=N/Nc1ccc(Cl)cc1)CCO2 | > 100 µM
